Assays:
[1] = 40° C./75% RH; for XRPD of stressed sample (solid form after stress): 4 days, result in words
[2] = for hygroscopicity suggested by DVS data: 5% to 95% RH; for weight gain observed on the sorption step: DVS whole sorption step
Description: Samples ae not dried prior to analysis. Equilibrium criteria used for analysis were less than 0.0100% weight change in 5 minutes, with a maximum equilibration time of 3 hours if the weight criterion was not met. Data are not corrected for the initial moisture content of the samples. Sodium chloride and polyvinypyrrolidine are used as calibration standards.

[3] = DVS desorption, result in words

Structure (SMILES)	net weight gain after 4 days [1]	XRPD of stressed sample (solid form after stress) [1]	hygroscopicity suggested by DVS data ([2]; result in words)	weight loss from 95 to 5% RH ([2]; DVS desorption)	weight gain from 5 to 95% RH ([2]; DVS sorption, 5 to 95% RH)	weight loss upon equilibration at 5% RH ([2]; DVS sorption, equilibration at 5% RH)	weight gain observed on the sorption step [2]	net weight loss after sorption and desorption ([2]; DVS, desorption versus sorption) [%]	weight loss from 75 to 5% RH ([2]; DVS desorption, 75 to 5% RH)	weight loss from 95 to 75% RH ([2]; DVS desorption, 95 to 75% RH)	hysteresis upon desorption [2, 3]	weight gain from 5 to 75% RH ([2]; DVS sorption)	weight gain from 75 to 95% RH ([2]; DVS sorption, 75 to 95% RH (above 75% RH))	Post DVS XRPD (solid form after DVS) ([2]; XRPD of sample after DVS)	net weight loss after 4 days [1]	behaviour of material in DVS (deliquescence) ([2]; DVS, upon desorption, result in words)
COc1cc2c(c(OC)c1OC)-c1ccc(OC)c(=O)cc1[C@@H](NC(C)=O)CC2.Cc1ccc(S(=O)(=O)O)cc1	approximately 1.0%	unchanged	not significantly hygroscopic	0.5% weight loss from 95 to 5% RH	0.4% weight gain from 5 to 95% RH	0.01% weight loss upon equilibration at 5% RH	~0.4%	~0.01								
COc1cc2c(c(OC)c1OC)-c1ccc(OC)c(=O)cc1[C@@H](NC(C)=O)CC2.O=C(O)C[C@H](O)C(=O)O [colchicine malic acid co-crystal]	approximately 5.4%	remains unchanged	hygroscopic				approximately 22%		9.6% weight loss from 75 to 5% RH	15.0% weight loss from 95 to 75% RH	no hysteresis	6.2% weight gain from 5 to 75% RH	15.6% weight gain from 75 to 95% RH	Colchicine malic acid co-crystal		
COc1cc2c(c(OC)c1OC)-c1ccc(OC)c(=O)cc1[C@@H](NC(C)=O)CC2.COc1cc2c(c(OC)c1OC)-c1ccc(OC)c(=O)cc1[C@@H](NC(C)=O)CC2.O=C(O)C(=O)O [colchicine oxalic acid co-crystal]		colchicine oxalic acid co-crystal, but minor disorder and shifting of the peaks is observed	hygroscopic	15.2% weight loss from 95 to 5% RH							Significant hysteresis	0.5% weight gain from 5 to 75% RH			approximately 6.7%	deliquesces

From US8519002B2, “Colchicine solid complex; methods of making; and methods of use thereof” (Takeda Pharmaceuticals U.S.A., Inc., priority 2008, dated 2013)
